What was measured:
[1] = target: T1, human recombinant HDAC1 (Homo sapiens, UniProt Q13547); experiment: HDAC1 enzyme activity inhibition (HDAC Fluorimetric Drug Discovery Kit); assay type: biochemical; settings: human recombinant HDAC1; IC50 calculated with GraphPad Prism; read-out: HDAC1
T1 construct: purchased Enzo Life Science, Inc. BML-SE456
Summary of the method: (§1)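 Fluorimetric deacetylase read-out. 5-fold compound dilutions; […] enzyme, 10 μM substrate; 30° C, 60 min; developer 30 min.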

[2] = target: T2, human recombinant HDAC6 (Homo sapiens, UniProt Q9UBN7); experiment: HDAC6 enzyme activity inhibition (HDAC Fluorimetric Drug Discovery Kit); assay type: biochemical; settings: for HDAC6 selectivity (fold): HDAC1 IC50 / HDAC6 IC50; for IC50: human recombinant HDAC6, IC50 calculated with GraphPad Prism
T2 construct: purchased Calbiochem Inc. 382180
T2 sequence (Q9UBN7 1-1215): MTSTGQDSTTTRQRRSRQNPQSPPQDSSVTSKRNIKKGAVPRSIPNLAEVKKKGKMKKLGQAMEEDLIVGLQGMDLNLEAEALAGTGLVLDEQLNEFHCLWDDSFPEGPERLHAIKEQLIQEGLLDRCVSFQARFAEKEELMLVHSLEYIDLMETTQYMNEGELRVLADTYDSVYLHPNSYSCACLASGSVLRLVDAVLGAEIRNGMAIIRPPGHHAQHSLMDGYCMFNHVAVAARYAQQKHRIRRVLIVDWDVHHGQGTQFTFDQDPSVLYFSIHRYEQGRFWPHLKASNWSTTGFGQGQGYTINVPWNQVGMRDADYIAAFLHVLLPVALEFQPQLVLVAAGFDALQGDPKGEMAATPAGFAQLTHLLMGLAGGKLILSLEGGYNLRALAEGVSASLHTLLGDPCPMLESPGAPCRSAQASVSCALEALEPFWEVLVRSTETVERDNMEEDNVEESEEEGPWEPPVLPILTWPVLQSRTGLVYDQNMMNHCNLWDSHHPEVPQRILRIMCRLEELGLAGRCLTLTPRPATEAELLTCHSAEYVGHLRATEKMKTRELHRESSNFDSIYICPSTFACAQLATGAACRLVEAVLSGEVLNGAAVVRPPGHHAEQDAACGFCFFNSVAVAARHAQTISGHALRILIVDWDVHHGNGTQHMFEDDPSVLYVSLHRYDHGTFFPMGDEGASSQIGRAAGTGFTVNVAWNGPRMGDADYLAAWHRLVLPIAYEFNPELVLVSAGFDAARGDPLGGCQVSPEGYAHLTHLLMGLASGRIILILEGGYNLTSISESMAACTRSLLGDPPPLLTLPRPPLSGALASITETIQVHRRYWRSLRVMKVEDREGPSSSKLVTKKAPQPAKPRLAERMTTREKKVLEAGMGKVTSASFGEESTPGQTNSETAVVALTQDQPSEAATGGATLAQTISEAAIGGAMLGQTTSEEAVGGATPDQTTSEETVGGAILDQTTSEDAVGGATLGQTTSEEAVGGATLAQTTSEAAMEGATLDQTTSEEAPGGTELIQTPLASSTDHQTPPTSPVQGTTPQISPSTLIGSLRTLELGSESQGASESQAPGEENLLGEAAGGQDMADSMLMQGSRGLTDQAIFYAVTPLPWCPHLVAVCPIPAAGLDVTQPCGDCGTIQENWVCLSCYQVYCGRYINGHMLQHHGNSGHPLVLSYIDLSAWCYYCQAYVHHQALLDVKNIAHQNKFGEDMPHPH
Summary of the method: as §1

[3] = tested on: hippocampal neurons from a Sprague-Dawley (SD) rat fetus; experiment: Effect of HDAC6-specific inhibitor on axonal transport of mitochondria in amyloid-beta treated neurons; assay type: cell-based; settings: transport velocity of mitochondria in neuronal axon after normalization; vehicle = 100%, amyloid beta treatment group = 0%; compound treatment for three hours
Method: On the 17th to 18th days (E17-18) of insemination, the hippocampal neurons from a Sprague-Dawley (SD) rat fetus were cultured in a culture container for imaging, which had been coated with extracellular matrix, and were treated with amyloid-beta protein fragments at a concentration of […]. In 24 hours later, the neurons were treated with the compound on the 8th day of in vitro culture. In three hours later, the resulting neurons were treated with MitoTracker Red CMXRos (Life Technologies, NY, USA) for last five minutes to stain mitochondria. An image on the axonal transport of stained neuron mitochondria was taken with a confocal microscope (Leica SP8; Leica microsystems, UK) at an interval of one second for one minute to measure a transport velocity of each mitochondria per second with an IMARIS analysis program (BITPLANE, Zurich, Switzerland).
In result, after setting a section, in which the group treated with amyloid-beta had shown a significant decrease in the transport velocity of mitochondria compared to a vehicle, it was confirmed for 1,3,4-oxadiazole triazol derivative compounds of the present invention, stereoisomers thereof or pharmaceutically acceptable salts thereof that the vehicles is represented as 100%, the amyloid beta treatment group is represented as 0%, a velocity distribution of the compound after normalization is represented as *, 0%˜50%; **, 50%˜100%; ***, >100%.

T1 sequence (Q13547 whole entry): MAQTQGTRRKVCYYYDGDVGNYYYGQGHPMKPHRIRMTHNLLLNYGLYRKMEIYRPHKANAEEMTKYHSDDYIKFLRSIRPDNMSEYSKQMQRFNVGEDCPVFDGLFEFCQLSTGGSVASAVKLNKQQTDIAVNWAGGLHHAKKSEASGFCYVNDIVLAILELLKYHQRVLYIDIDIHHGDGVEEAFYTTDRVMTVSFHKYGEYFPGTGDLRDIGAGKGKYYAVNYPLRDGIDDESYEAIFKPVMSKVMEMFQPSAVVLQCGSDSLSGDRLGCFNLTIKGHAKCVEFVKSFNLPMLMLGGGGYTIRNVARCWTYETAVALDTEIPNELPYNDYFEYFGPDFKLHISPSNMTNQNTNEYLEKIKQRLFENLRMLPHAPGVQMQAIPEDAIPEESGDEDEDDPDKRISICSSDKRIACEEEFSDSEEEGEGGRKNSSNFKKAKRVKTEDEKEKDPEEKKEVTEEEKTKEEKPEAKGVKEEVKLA

IC50 [1] [nM]	HDAC6 selectivity (fold) [2] [fold]	IC50 [2] [nM]	SMILES	Velocity distribution (%) [3]
> 50000	4464	11.2	CC(C)(C)C(=O)Nc1cccc(-c2cn(Cc3ccc(-c4nnc(C(F)F)o4)cn3)nn2)c1 [Compound 3825, N-(3-(1-((5-(5-(difluoromethyl)-1,3,4-oxadiazol-2-yl)pyridin-2-yl)methyl)-1H-1,2,3-triazol-4-yl)phenyl)pivalamide]	*** (***, >100%)
> 50000	4132	12.1	CCOC(=O)Nc1cccc(-c2cn(Cc3ccc(-c4nnc(C(F)F)o4)cn3)nn2)c1 [Compound 3826]	* (*, 0%˜50%)
> 50000	1196	41.8	FC(F)c1nnc(-c2ccc(Cn3cc(-c4cccc(NC5CCCCC5)c4)nn3)nc2)o1 [Compound 3828, N-cyclohexyl-3-(1-((5-(5-(difluoromethyl)-1,3,4-oxadiazol-2-yl)pyridin-2-yl)methyl)-1H-1,2,3-triazol-4-yl)aniline]	* (*, 0%˜50%)
> 50000	6756	7.4	FC(F)c1nnc(-c2ccc(Cn3cc(-c4cccc5[nH]ccc45)nn3)nc2)o1 [Compound 3839, 2-(6-((4-(1H-indol-4-yl)-1H-1,2,3-triazol-1-yl)methyl)pyridin-3-yl)-5-(difluoromethyl)-1,3,4-oxadiazole]	* (*, 0%˜50%)
> 50000	2032	24.6	Cn1ncc2c(-c3cn(Cc4ccc(-c5nnc(C(F)F)o5)cn4)nn3)cccc21 [Compound 3842, 2-(difluoromethyl)-5-(6-((4-(1-methyl-1H-indazol-4-yl)-1H-1,2,3-triazol-1-yl)methyl)pyridin-3-yl)-1,3,4-oxadiazole]	** (**, 50%˜100%)
> 50000	1953	25.6	CN1CCN(c2cccc(-c3cn(Cc4ccc(-c5nnc(C(F)F)o5)cn4)nn3)c2)CC1 [Compound 3867, 2-(difluoromethyl)-5-(6-((4-(3-(4-methylpiperazin-1-yl)phenyl)-1H-1,2,3-triazol-1-yl)methyl)pyridin-3-yl)-1,3,4-oxadiazole]	** (**, 50%˜100%)
> 50000	1474	33.9	FC(F)c1nnc(-c2ccc(Cn3cc(-c4cncc(Cl)c4)nn3)nc2)o1 [Compound 3883, 2-(6-((4-(5-chloropyridin-3-yl)-1H-1,2,3-triazol-1-yl)methyl)pyridin-3-yl)-5-(difluoromethyl)-1,3,4-oxadiazole]	* (*, 0%˜50%)

Second part, the molecule before the results:

SMILES	IC50 [1] [nM]	HDAC6 selectivity (fold) [2] [fold]	IC50 [2] [nM]	Velocity distribution (%) [3]
FC(F)c1nnc(-c2ccc(Cn3cc(-c4cccc(NC5CCOCC5)c4)nn3)nc2)o1 [Compound 3827, N-(3-(1-((5-(5-(difluoromethyl)-1,3,4-oxadiazol-2-yl)pyridin-2-yl)methyl)-1H-1,2,3-triazol-4-yl)phenyl)tetrahydro-2H-pyran-4-amine]	> 50000	2487	20.1	*** (***, >100%)
FC(F)c1nnc(-c2ccc(Cn3cc(-c4ccc5cc[nH]c5c4)nn3)nc2)o1 [Compound 3838, 2-(6-((4-(1H-indol-6-yl)-1H-1,2,3-triazol-1-yl)methyl)pyridin-3-yl)-5-(difluoromethyl)-1,3,4-oxadiazole]	> 50000	7142	7	* (*, 0%˜50%)
FC(F)c1nnc(-c2ccc(Cn3cc(-c4ccnc5[nH]ccc45)nn3)nc2)o1 [Compound 3840, 2-(6-((4-(1H-pyrrolo[2,3-b]pyridin-4-yl)-1H-1,2,3-triazol-1-yl)methyl)pyridin-3-yl)-5-(difluoromethyl)-1,3,4-oxadiazole]	> 50000	5681	8.8	** (**, 50%˜100%)
FC(F)c1nnc(-c2ccc(Cn3cc(-c4cnc5[nH]ccc5c4)nn3)nc2)o1 [Compound 3841, 2-(6-((4-(1H-pyrrolo[2,3-b]pyridin-5-yl)-1H-1,2,3-triazol-1-yl)methyl)pyridin-3-yl)-5-(difluoromethyl)-1,3,4-oxadiazole]	> 50000	5952	8.4	*** (***, >100%)
Fc1ccccc1-c1cn(Cc2ccc(-c3nnc(C(F)F)o3)cn2)nn1 [Compound 3853, 2-(difluoromethyl)-5-(6-((4-(2-fluorophenyl)-1H-1,2,3-triazol-1-yl)methyl)pyridin-3-yl)-1,3,4-oxadiazole]	> 50000	1612	31	** (**, 50%˜100%)
Fc1cccc(-c2cn(Cc3ccc(-c4nnc(C(F)F)o4)cn3)nn2)c1 [Compound 3854, 2-(difluoromethyl)-5-(6-((4-(3-fluorophenyl)-1H-1,2,3-triazol-1-yl)methyl)pyridin-3-yl)-1,3,4-oxadiazole]	> 50000	1259	39.7	*** (***, >100%)
Cc1cccc(-c2cn(Cc3ccc(-c4nnc(C(F)F)o4)cn3)nn2)c1 [Compound 3856, 2-(difluoromethyl)-5-(6-((4-(m-tolyl)-1H-1,2,3-triazol-1-yl)methyl)pyridin-3-yl)-1,3,4-oxadiazole]	> 50000	1506	33.2	*** (***, >100%)
FC(F)c1nnc(-c2ccc(Cn3cc(-c4cccc(N5CCOCC5)c4)nn3)nc2)o1 [Compound 3866, 4-(3-(1-((5-(5-(difluoromethyl)-1,3,4-oxadiazol-2-yl)pyridin-2-yl)methyl)-1H-1,2,3-triazol-4-yl)phenyl)morpholin]	> 50000	2688	18.6	** (**, 50%˜100%)
FC(F)c1nnc(-c2ccc(Cn3cc(-c4ccccn4)nn3)nc2)o1 [Compound 3881, 2-(difluoromethyl)-5-(6-((4-(pyridin-2-yl)-1H-1,2,3-triazol-1-yl)methyl)pyridin-3-yl)-1,3,4-oxadiazole]	> 50000	1470	34	*** (***, >100%)
O=C(c1cccc(-c2cn(Cc3ccc(-c4nnc(C(F)F)o4)cn3)nn2)c1)N1CCC1 [Compound 3886, Azetidin-1-yl(3-(1-((5-(5-(difluoromethyl)-1,3,4-oxadiazol-2-yl)pyridin-2-yl)methyl)-1H-1,2,3-triazol-4-yl)phenyl)methanone]	> 50000	1118	44.7	* (*, 0%˜50%)
